How the values were obtained:
human IL-17A (hIL-17A) = target: T1, human IL-17A (hIL-17A) (Homo sapiens, UniProt Q16552); test: IL-17A enzyme-linked immunosorbent assay (competitive ELISA, receptor-ligand binding)
T1 construct: purchased Sino Biological Inc. 12047-H07B
T1 sequence (Q16552 24-155): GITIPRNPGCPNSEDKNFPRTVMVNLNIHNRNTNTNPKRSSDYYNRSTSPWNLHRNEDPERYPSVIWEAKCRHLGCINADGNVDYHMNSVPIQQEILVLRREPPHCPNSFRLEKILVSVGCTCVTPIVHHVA
Experimental: The inhibition of receptor-ligand binding by human IL-17A (hIL-17A) inhibitors was detected by competitive ELISA. A 96-well plate was inoculated 0.2 μg/ml IL-17 (Sino Biological Inc. Cat #12047-H07B) for incubation at 37° C. for 30 min, 100 μL for per well. The 96-well plate was washed four times with phosphate buffered saline (PBS) containing Tween-20 (PBST, 0.05% Tween-20), 200 μL for per well each time. 200 μL of 5% skim milk were added into the 96-well plate for incubation on a shaker at 25° C. for 30 min. The 96-well plate was washed four times with PBST (0.05% Tween-20), and added with 89 μL of PBST and 1 μL of a compound to be measured (100×), in which a concentration the compound to be measured (100×) was 0.003 μM-30 μM. The mixture was mixed evenly and incubated at 25° C. for 10 min. The mixture was added with 10 μL of 16 nM IL-17R, followed by incubation at 25° C. for 30 min. After washing the 96-well plate 4 times, 100 μL of anti-Fc tag horseradish peroxidase (HRP) coupled antibody were added for incubation on a shaker at 25° C. for 30 min. After washing the 96-well plate 4 times, 100 μL of 3,3′,5,5′-tetramethylbenzidine (TMB) substrate solution were added to the 96-well plate for incubation away from light at 25° C. After addition of 20% HCl, an absorbance was measure by a microplate reader at 450 nm.
The compounds prepared according to the above method were assayed for human IL-17A inhibitory activity.

hIL-17A = target: T2, hIL-17A (Homo sapiens, UniProt Q16552); test: Inhibition of hIL-17A-induced chemokine GROα/CXCL1 production in HT-29 cell; format: cell-based
T2 construct: purchased R&D 317-ILB
T2 sequence (Q16552 20-155 limits assumed): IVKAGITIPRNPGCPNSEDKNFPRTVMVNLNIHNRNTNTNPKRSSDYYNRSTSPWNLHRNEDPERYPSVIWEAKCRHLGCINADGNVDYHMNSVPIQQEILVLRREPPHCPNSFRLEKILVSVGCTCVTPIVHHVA
Experimental: Human colorectal adenocarcinoma cell HT-29 was inoculated to a 96-well plate (5×10^4 for per well), and incubated at 37° C. on an incubator overnight. A mixture of 30 ng/mL hIL-17A protein (R&D, #317-ILB) with gradient concentrations of IL-17A small molecule inhibitors or with 0.3 μg/mL positive control IL-17A antibody (R&D, #AF-317-NA) was incubated for 1 h at 37° C., and added into the 96-well plate to incubated with HT-29 at 37° C. for 48 h. A level of GROα in a cell culture supernatant was then detected using an ELISA kit for GROα (Cisbio, #62HCXC1peg).
Inhibitory effect of the compound prepared in Examples on hIL-17A-induced chemokine GROα/CXCL1 production in HT-29 cell was tested according to the methods of Experimental Examples 1 and 2. […] “-” indicated not tested. According to the results, the compounds provided herein have good human IL-17A inhibitory activity and can be effectively used in the treatment of diseases associated with abnormal hIL-17A activity.

[1] = Drug metabolism properties (pharmacokinetics) in mice; format: in vivo; details: mouse, plasma, intravenous injection/oral gavage, read-out: Oral bioavailability F % (mice)
Experimental: In order to investigate the drug metabolism property of the compounds provided herein in mice, a compound solution was given to 6 mice by intravenous injection/oral gavage at corresponding doses. Mice were divided into groups A and B for each administration, where anticoagulated whole blood was collected from group A at 5 min, 30 min, 2 h and 8 h after drug administration; and anticoagulated whole blood was collected from group B at 15 min, 1 h, 4 h and 24 h after drug administration. plasma was separated.
(§1) Plasma concentrations of compounds were determined by standard curve calibration method using LC-MS. Using Winnolin 5.2 software, plasma concentration-time data were fitted to pharmacokinetic parameters, including elimination half-life (T1/2), area under the plasma pharmacokinetic curve at the sampling endpoint (AUClast), peak concentration (Cmax), apparent volume of distribution (Vz), total clearance ration (Cl), and absolute bioavailability (F %).

[2] = Drug metabolism properties (pharmacokinetics) in rats; format: in vivo; details: plasma; rat, intravenous injection/oral gavage; read-out: Oral bioavailability F % (rat)
Experimental: In order to investigate the drug metabolism property of the compounds provided herein in rats, a compound solution was given to 3 rats by intravenous injection/oral gavage at corresponding doses. After 5 min, 15 min, 30 min, 1 h, 2 h, 4 h, 8 h and 24 h administration, anticoagulated whole blood was collected from rats, and plasma was separated.
as §1

[3] = Drug metabolism properties (pharmacokinetics) in dogs; format: in vivo; details: both sexes, plasma; dog, intravenous injection/oral gavage; read-out: Oral bioavailability F % (dog)
Experimental: In order to investigate the drug metabolism property of the compounds provided herein in dogs, a compound solution was given to 2 groups of dogs (4 dogs (2 males+2 females) for each group) by intravenous injection/oral gavage at corresponding doses. After […], 15 min, 30 min, 1 h, 2 h, 4 h, 8 h, 12 h, 24 h and 36 h administration, anticoagulated whole blood was collected from dogs, and plasma was separated.
as §1

hIL-17A protein = target: T3, hIL-17A protein (Homo sapiens, UniProt Q16552); test: Binding to hIL-17A protein through surface plasmon resonance (SPR, Biacore 8K); details: for ka / kd: SPR; for binding to hIL-17A (SPR, in words): compared with the positive compound
T3 sequence (Q16552 24-155): T1 sequence (Q16552 24-155)
Experimental: The binding of the compounds provided herein to the hIL-17A protein was tested using SPR, and analyzed using a Biacore 8K system. A positive compound was the compound of Example 32 in WO2020/127685A1.

hIL-17A/RA = target: T4, hIL-17A/RA (Homo sapiens, UniProt Q16552); test: Reversibility of binding by jump dilution ELISA (hIL-17A/hIL-17RA); details: for maintenance of binding to and inhibition of hIL-17A protein (jump dilution, in words): compared with the positive compound
T4 construct: biotin label (inferred from streptavidin-HRP detection)
T4 sequence (Q16552 24-155): T1 sequence (Q16552 24-155)
Experimental: The reversibility of the binding of the compounds in Examples to hIL-17A and the binding time of the compound-protein complex were qualitatively and quantitatively analyzed by jump dilution assay. The positive compound was the compound of Example 32 in WO2020/127685 A1. 7 nM hIL-17RA were inoculated to a 96-well plate (100 μL for per well), and incubated at 37° C. for 30 min. A blank group was 100 μL of coating buffer solution. After […] incubation at 4° C., the 96-well plate was washed with PBST (0.05% Tween-20) 4 times, 200 μL for per well each time. The 96-well plate was added with 200 μL 3% BSA (PBST diluted) and closed on a shaker at 37° C. for 30 min. […] The configured hIL7A was mixed with an equal volume of compound in a 200 ul centrifuge tube to obtain a protein-compound mixture. The protein-compound mixture was subjected to pre-incubation at room temperature for 15 min. The protein-compound mixture, positive control group and negative control group were diluted 200×. After closing, the 96-well plate was washed 4 times, and added with dilution 100 μL for per well to incubate at 25° C. for 28, 24, 5, 2 and 0 h. After washing the plate 4 times, 100 μL of Streptavidin-HRP coupled antibody diluted with 1% BSA was added and then incubated for 30 min on a shaker at 25° C. After washing the plate 4 times, 100 μL of TMB substrate solution were added, and incubated away from light for 5-15 min at 25° C. (depending on the color of the reaction). After addition of 20% HCl, an absorbance was measure by a microplate reader at 450 nm.

[4] = test system: imiquimod cream-induced psoriasis model; test: Pharmacodynamic test of imiquimod cream-induced psoriasis model in mice; format: in vivo, C57BL/6N mice
Experimental: The backs of […] female C57BL/6N mice were shaved approximately 2.5×4 cm, and imiquimod (IMQ, Imiquimod) cream was applied continuously from day 1 to day 5 to establish a psoriasis model. The compound 26 provided herein (3, 10, 30 mg/kg) was given once daily by gavage to the mice, an IL-17A antibody solution (Ab, 2 mg/kg) was given by intraperitoneal injection every other day to the mice, or a dexamethasone solution (10 mg/kg) was given once daily by intraperitoneal injection to the mice. […] A skin thickness of mice was measured on the first day and fifth day to examine IMQ-induced skin thickening (FIG. 3B).
The skin of each group of mice was collected on the fifth day to detect IL6 mRNA levels by RT-qPCR (FIG. 3C). […] The plasma of mice in each group was collected on the fifth day to determine the level of IL-6 protein (FIG. 3D).

Structure (SMILES)	IC50 (human IL-17A (hIL-17A)) [nM]	IC50 (hIL-17A) [nM]	further results
Cc1n[nH]c(C)c1-c1ccc(NC(=O)[C@@H](NC(=O)c2ccnn2C(C)C)C2c3ccc(F)cc3OCC23CC3)cn1 (some centres unmarked) [Compound 18]	164	332	bioavailability [1]: 55%; bioavailability [2]: 18%; bioavailability [3]: 41%
Cc1n[nH]c(C)c1-c1ncc(NC(=O)[C@@H](NC(=O)c2ccnn2C(C)C)C2c3cc(F)c(F)cc3OCC23CC3)cc1F (some centres unmarked) [Compound 47]	88	172	Kd (hIL-17A protein): 0.00169 nM; ka (hIL-17A protein): 20400 M⁻¹ s⁻¹; kd (hIL-17A protein): 3.44e-08 s⁻¹; binding to hIL-17A (SPR, in words) (hIL-17A protein): strong binding to hIL-17A and were much stronger than the positive compound; maintenance of binding to and inhibition of hIL-17A protein (jump dilution, in words) (hIL-17A/RA): able to maintain binding to and inhibit the activity of hIL-17A protein for a long time; 50% enzyme activity retention time, Value on hIL-17A/RA (10X cpds) (hIL-17A/RA; jump dilution, 10X cpds): >28 h
CCc1nonc1C(=O)N[C@H](C(=O)Nc1ccc(-c2c(C)n[nH]c2C)nc1)C1c2ccc(F)cc2OCC12CC2 (some centres unmarked) [Compound 26]	70	267	ka (hIL-17A protein): 21300 M⁻¹ s⁻¹; kd (hIL-17A protein): 1.98e-08 s⁻¹; binding to hIL-17A (SPR, in words) (hIL-17A protein): strong binding to hIL-17A and were much stronger than the positive compound; maintenance of binding to and inhibition of hIL-17A protein (jump dilution, in words) (hIL-17A/RA): able to maintain binding to and inhibit the activity of hIL-17A protein for a long time; bioavailability [1]: 54%; bioavailability [2]: 16%; skin pathological injury, HE staining ([4]; 30 mg/kg, fifth day, FIGS. 4A-4D): effective in inhibiting IMQ-induced skin inflammatory cell infiltration and damage; IMQ-induced skin inflammation, AUC of PASI scoring ([4]; 3, 10, 30 mg/kg once daily by gavage, FIG. 3A): attenuated the level of IMQ-induced skin inflammation with effects similar to those of the IL-17A antibody; skin IL6 mRNA levels by RT-qPCR ([4]; fifth day, FIG. 3C): dose-dependent reversion; IL-6 protein level in plasma ([4]; fifth day, FIG. 3D): inhibited in a dose-dependent manner; IMQ-induced skin thickening ([4]; skin thickness first day and fifth day, FIG. 3B): reversed the skin thickening caused by IMQ to varying degrees
Cc1n[nH]c(C)c1-c1ncc(NC(=O)[C@@H](NC(=O)c2nonc2C(C)C)C2c3ccc(F)cc3OCC23CC3)cc1F (some centres unmarked) [Compound 39]	111	856	–
Cc1n[nH]c(C)c1-c1ccc(NC(=O)[C@@H](NC(=O)c2ccnn2C)C2c3ccc(F)cc3OCC23CC3)cc1 (some centres unmarked) [Compound 17]	36	68	–
CCc1nocc1C(=O)N[C@H](C(=O)Nc1ccc(-c2c(C)n[nH]c2C)cc1)C1c2ccc(F)cc2OCC12CC2 (some centres unmarked) [Compound 36]	144	58	–
Cc1nonc1C(=O)N[C@H](C(=O)Nc1ccc(-c2c(C)n[nH]c2C)cc1)C1c2cc(F)c(F)cc2OCC12CC2 (some centres unmarked) [Compound 42]	40	70	–
CCn1nccc1C(=O)N[C@H](C(=O)Nc1ccc(-c2c(C)n[nH]c2C)nc1)C1c2cc(F)ccc2OCC12CC2 (some centres unmarked) [Compound 21]	66	506	–
Cc1nonc1C(=O)N[C@H](C(=O)Nc1ccc(-c2c(C)n[nH]c2C)nc1)C1c2ccc(F)cc2CC12CC2 (some centres unmarked) [Compound 32]	75	351	–
Cc1nonc1C(=O)N[C@H](C(=O)Nc1ccc(-c2c(C)n[nH]c2C)cc1)C1c2ccc(F)c(F)c2OCC12CC2 (some centres unmarked) [Compound 57]	112	346	–
Cc1n[nH]c(C)c1-c1ccc(NC(=O)[C@@H](NC(=O)c2ccnn2C(C)C)C2c3cc(F)c(F)cc3OCC23CC3)cc1 (some centres unmarked) [Compound 48]	135	184	–
Cc1n[nH]c(C)c1-c1ncc(NC(=O)[C@@H](NC(=O)c2nonc2C2CC2)C2c3ccc(F)cc3OCC23CC3)cc1F (some centres unmarked) [Compound 91]	67	1080	–

From US20230227437A1, “IMMUNOMODULATOR” (priority 2020, published 2023)
